This note sets out measurements from ChEMBL document CHEMBL2150986, “Synthesis and biological evaluation of 1-benzylidene-3,4-dihydronaphthalen-2-one as a new class of microtubule-targeting agents” (J Med Chem, 2012).

In data set [1] the test system is Mus musculus. The data set is described as follows: Toxicity in nude BALB/c mouse xenografted with human HT-29 cells assessed as change in kidney weight at 50 mg/kg, ip qd after 21 days relative to vehicle-treated control. The data set is classed as organism-based. Particulars: in vivo, 504 h. The arrangement: dose 50 mg/kg, route intraperitoneal.
In data set [2] the test system is Mus musculus. The experiment in a line: Toxicity in nude BALB/c mouse xenografted with human HT-29 cells assessed as body weight change at 50 mg/kg, ip qd after 21 days (reference value: 2.7 g). Type of data set: organism-based. The arrangement: dose 50 mg/kg, route intraperitoneal. Particulars: in vivo, 504 h.
The subject of data set [3] is Mus musculus. The data set is described as follows: Toxicity in nude BALB/c mouse xenografted with human HT-29 cells assessed as effect on ALP level at 50 mg/kg, ip qd after 21 days (reference value: 107.6 +/- 0.8 IU/L). Type of data set: organism-based. Set-up: dose 50 mg/kg, route intraperitoneal. Particulars: in vivo, 504 h.
Data set [4] deals with Mus musculus. The experiment in a line: Toxicity in ICR mouse assessed as mortality at 50 mg/kg, ip administered on day 1. The data set is classed as organism-based. The arrangement: dose 50 mg/kg, route intraperitoneal. Particulars: in vivo.
For the next data set, the system named is MDA-MB-435. The data set is described as follows: cells. Particulars: Homo sapiens, MDA-MB-435, 72 h.
Data set [5] relates to Mus musculus. The data set is described as follows: Toxicity in nude BALB/c mouse xenografted with human HT-29 cells assessed as effect on ALT level at 50 mg/kg, ip qd after 21 days (reference value: 28 +/- 0.4 IU/L). Type of data set: organism-based. The arrangement: dose 50 mg/kg, route intraperitoneal. Particulars: in vivo, 504 h.
The test system of data set [6] is Mus musculus. The data set is described as follows: Toxicity in ICR mouse assessed as body weight loss at 50 mg/kg, ip administered on day 1 measured for 10 days relative to vehicle-treated control. Type of data set: organism-based. The arrangement: dose 50 mg/kg, route intraperitoneal. Particulars: in vivo, 240 h.
Data set [7] deals with Mus musculus. The data set is described as follows: Toxicity in nude BALB/c mouse xenografted with human HT-29 cells assessed as mortality at 50 mg/kg, ip qd after 21 days. Set-up: dose 50 mg/kg, route intraperitoneal. Type of data set: organism-based. Particulars: in vivo, 504 h. A general note: A xenograft is tissue or cells of one species grown in another, often human tumour cells in immunodeficient mice.

The test system of a further data set is CCRF-CEM. The experiment in a line: Cytotoxicity against human CEM cells after 72 hrs by MTT assay. Type of data set: functional, cell-based. (In general: Tetrazolium assays rely on reduction of a dye to a coloured formazan, in cell work by metabolically active cells.)
The test system of data set [8] is Mus musculus. The data set is described as follows: Toxicity in nude BALB/c mouse xenografted with human HT-29 cells assessed as change in liver weight at 50 mg/kg, ip qd after 21 days relative to vehicle-treated control. The data set is classed as organism-based. The arrangement: dose 50 mg/kg, route intraperitoneal. Particulars: in vivo, 504 h.
For data set [9], the system named is Mus musculus. The data set is described as follows: Toxicity in nude BALB/c mouse xenografted with human HT-29 cells assessed as effect on WBC count at 30 mg/kg, ip qd after 21 days (reference value: 25.38 +/- 0.22 x 10^3 mm'-3). Type of data set: organism-based. The arrangement: dose 30 mg/kg, route intraperitoneal. Particulars: in vivo, 504 h.
The subject of data set [10] is Mus musculus. The data set is described as follows: Toxicity in nude BALB/c mouse xenografted with human HT-29 cells assessed as effect on ALT level at 30 mg/kg, ip qd after 21 days (reference value: 28 +/- 0.4 IU/L). The data set is classed as organism-based. The arrangement: dose 30 mg/kg, route intraperitoneal. Particulars: in vivo, 504 h.
For a further data set, the system named is HCT-116. The experiment in a line: cells. Particulars: Homo sapiens, HCT-116, 72 h.
The test system of data set [11] is Mus musculus. The experiment in a line: Toxicity in nude BALB/c mouse xenografted with human HT-29 cells assessed as change in spleen weight at 50 mg/kg, ip qd after 21 days relative to vehicle-treated control. The data set is classed as organism-based. Set-up: dose 50 mg/kg, route intraperitoneal. Particulars: in vivo, 504 h.
Data set [12] concerns HT-29. The experiment in a line: Antitumor activity against human HT-29 cells xenografted in nude BALB/c mouse assessed as decrease in tumor volume at 50 mg/kg, ip qd measured on day 21 relative to vehicle-treated control. Type of data set: functional. Particulars: route intraperitoneal.
For data set [13], the system named is Mus musculus. The experiment in a line: Toxicity in nude BALB/c mouse xenografted with human HT-29 cells assessed as mortality at 30 mg/kg, ip qd after 21 days. Set-up: dose 30 mg/kg, route intraperitoneal. Particulars: in vivo, 504 h. The data set is classed as organism-based.
The subject of data set [14] is Mus musculus. The data set is described as follows: Toxicity in nude BALB/c mouse xenografted with human HT-29 cells assessed as effect on platelet count at 30 mg/kg, ip qd after 21 days (reference value: 1509 +/- 34 x 10^3 mm'-3). The data set is classed as organism-based. Particulars: in vivo, 504 h. Set-up: dose 30 mg/kg, route intraperitoneal.
The subject of data set [15] is Mus musculus. The data set is described as follows: Toxicity in nude BALB/c mouse xenografted with human HT-29 cells assessed as effect on platelet count at 50 mg/kg, ip qd after 21 days (reference value: 1509 +/- 34 x 10^3 mm'-3). Type of data set: organism-based. Particulars: in vivo, 504 h. Set-up: dose 50 mg/kg, route intraperitoneal.
For data set [16], the system named is Mus musculus. The experiment in a line: Toxicity in nude BALB/c mouse xenografted with human HT-29 cells assessed as effect on lymphocyte count at 30 mg/kg, ip qd after 21 day (reference value: 15.88 +/- 0.41 x 10^3 mm'-3). Type of data set: organism-based. The arrangement: dose 30 mg/kg, route intraperitoneal. Particulars: in vivo, 504 h.
Data set [17] relates to Mus musculus. The experiment in a line: Toxicity in nude BALB/c mouse xenografted with human HT-29 cells assessed as effect on ALP level at 30 mg/kg, ip qd after 21 days (reference value: 107.6 +/- 0.8 IU/L). Type of data set: organism-based. The arrangement: dose 30 mg/kg, route intraperitoneal. Particulars: in vivo, 504 h.
Data set [18] concerns Mus musculus. The data set is described as follows: Toxicity in nude BALB/c mouse xenografted with human HT-29 cells assessed as effect on WBC count at 50 mg/kg, ip qd after 21 days (reference value: 25.38 +/- 0.22 x 10^3 mm'-3). Set-up: dose 50 mg/kg, route intraperitoneal. The data set is classed as organism-based. Particulars: in vivo, 504 h.
The test system of data set [19] is Mus musculus. The experiment in a line: Toxicity in nude BALB/c mouse xenografted with human HT-29 cells assessed as body weight change at 30 mg/kg, ip qd after 21 days (reference value: 2.7 g). The arrangement: dose 30 mg/kg, route intraperitoneal. The data set is classed as organism-based. Particulars: in vivo, 504 h.
Data set [20] concerns Mus musculus. The experiment in a line: Toxicity in nude BALB/c mouse xenografted with human HT-29 cells assessed as effect on lymphocyte count at 50 mg/kg, ip qd after 21 days (reference value: 15.88 +/- 0.41 x 10^3 mm'-3). The arrangement: dose 50 mg/kg, route intraperitoneal. The data set is classed as organism-based. Particulars: in vivo, 504 h.
Data set [21] has as its system HT-29. The data set is described as follows: Antitumor activity against human HT-29 cells xenografted in nude BALB/c mouse assessed as decrease in tumor volume at 30 mg/kg, ip qd measured on day 21 relative to vehicle-treated control. The data set is classed as functional. Particulars: route intraperitoneal.

Description for MDA-MB-435: Cytotoxicity against human MDA-MB-435 cells after 72 hrs by MTT assay

The term IC50 denotes the concentration at which inhibition is half-maximal. The term T/C denotes the ratio of treated to control. For `COc1ccc(/C=C\c2cc(OC)c(OC)c(OC)c2)cc1O` [COMBRETASTATIN A4], the Activity entry is “Toxic” with Mus musculus [1]; 1.8 g in the data set on Mus musculus [2]; 149.3 IU/L in the data set with Mus musculus [3]; “Non-toxic” in the data set with Mus musculus [4]; 66.3 IU/L in the data set with Mus musculus [5]; “Toxic” in the data set with Mus musculus [6]. Besides, the Activity result is recorded as “Non-toxic” with Mus musculus [7]; “Toxic” in the data set on Mus musculus [8]; 19.34 ×10³ /mm3 with Mus musculus [9]; 25 IU/L in the data set with Mus musculus [10]; “Toxic” in the data set with Mus musculus [11]; “Non-toxic” in the data set with Mus musculus [13]. In addition, the Activity was found to be 1923 ×10³ /mm3 with Mus musculus [14]; 2206 ×10³ /mm3 with Mus musculus [15]; 10.62 ×10³ /mm3 in the data set with Mus musculus [16]; 105.3 IU/L with Mus musculus [17]; 12.09 ×10³ /mm3 with Mus musculus [18]; 1.7 g in the data set with Mus musculus [19]. Moreover, the Activity in the data set with Mus musculus [20] is on record as 4.14 ×10³ /mm3. Further, the IC50 with MDA-MB-435, in the data set on CCRF-CEM and with HCT-116 was 1 nM throughout. Moreover, the T/C in the data set with HT-29 [12] amounted to 47%; with HT-29 [21], 53%.
